Source: ChEMBL document CHEMBL3352763, “Selective inhibition of human carbonic anhydrases by novel amide derivatives of probenecid: synthesis, biological evaluation and molecular modelling studies” (Bioorg Med Chem, 2014)

Columns and labels:
Carbonic anhydrase 2 = Carbonic anhydrase 2 (Homo sapiens, UniProt P00918); assay: Inhibition of recombinant human carbonic anhydrase 2 after 15 mins by stopped flow CO2 hydration assay
Carbonic anhydrase 9 = Carbonic anhydrase 9 (Homo sapiens, UniProt Q16790); assay: Inhibition of recombinant human carbonic anhydrase 9 after 15 mins by stopped flow CO2 hydration assay
Carbonic anhydrase 1 = Carbonic anhydrase 1 (Homo sapiens, UniProt P00915); assay: Inhibition of recombinant human carbonic anhydrase 1 after 15 mins by stopped flow CO2 hydration assay
Carbonic anhydrase 12 = Carbonic anhydrase 12 (Homo sapiens, UniProt O43570); assay: Inhibition of recombinant human carbonic anhydrase 12 after 15 mins by stopped flow CO2 hydration assay
Sequence of Carbonic anhydrase 12 (O43570 whole entry): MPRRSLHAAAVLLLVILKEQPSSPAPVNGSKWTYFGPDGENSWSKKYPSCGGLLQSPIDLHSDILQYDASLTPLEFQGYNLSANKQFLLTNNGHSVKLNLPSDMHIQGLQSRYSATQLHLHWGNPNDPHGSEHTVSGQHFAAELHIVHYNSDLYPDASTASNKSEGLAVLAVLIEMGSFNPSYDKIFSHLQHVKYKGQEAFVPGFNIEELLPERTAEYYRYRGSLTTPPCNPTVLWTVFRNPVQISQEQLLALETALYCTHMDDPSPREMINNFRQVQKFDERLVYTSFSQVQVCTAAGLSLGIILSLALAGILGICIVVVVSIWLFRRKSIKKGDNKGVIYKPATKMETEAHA

Sequence of Carbonic anhydrase 1 (P00915 whole entry): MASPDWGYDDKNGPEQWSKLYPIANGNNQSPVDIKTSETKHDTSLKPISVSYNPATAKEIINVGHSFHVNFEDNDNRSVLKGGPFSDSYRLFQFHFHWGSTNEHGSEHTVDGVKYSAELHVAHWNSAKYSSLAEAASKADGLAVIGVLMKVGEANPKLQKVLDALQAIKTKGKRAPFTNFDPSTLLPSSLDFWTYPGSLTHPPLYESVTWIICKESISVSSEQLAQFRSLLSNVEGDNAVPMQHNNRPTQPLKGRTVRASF

Row | Ki (Carbonic anhydrase 2) | Ki (Carbonic anhydrase 9) | Ki (Carbonic anhydrase 1) | Ki (Carbonic anhydrase 12) | Compound
1 | > 10 µM | 0.223 µM | – | – | CCCN(CCC)S(=O)(=O)c1ccc(C(=O)Nc2ccccc2N)cc1
2 | > 10 µM | 0.198 µM | – | – | CCCN(CCC)S(=O)(=O)c1ccc(C(=O)Nc2cccc(Cl)c2)cc1
3 | > 10 µM | 0.234 µM | – | – | CCCN(CCC)S(=O)(=O)c1ccc(C(=O)NC2CCCCC2)cc1
4 | > 10 µM | 0.26 µM | – | – | CCCN(CCC)S(=O)(=O)c1ccc(C(=O)NC2CCCCC2C)cc1 (configuration not stated)
5 | > 10 µM | 0.228 µM | – | – | CCCN(CCC)S(=O)(=O)c1ccc(C(=O)Nc2ccccn2)cc1
6 | > 10 µM | 0.171 µM | – | – | CCCN(CCC)S(=O)(=O)c1ccc(C(=O)Nc2ccccc2)cc1
7 | 0.431 µM | 0.36 µM | > 10 µM | 1.24 µM | CCCN(CCC)S(=O)(=O)c1ccc(C(=O)O)cc1 [PROBENECID]
8 | > 10 µM | 0.243 µM | – | – | CCCN(CCC)S(=O)(=O)c1ccc(C(=O)Nc2ccc(Cl)cc2)cc1
9 | > 10 µM | 0.216 µM | – | – | CCCN(CCC)S(=O)(=O)c1ccc(C(=O)Nc2nncs2)cc1
10 | > 10 µM | – | – | – | CCCN(CCC)S(=O)(=O)c1ccc(C(=O)Nc2ccccc2[N+](=O)[O-])cc1
11 | > 10 µM | 0.165 µM | – | – | CCCN(CCC)S(=O)(=O)c1ccc(C(=O)NC)cc1
12 | > 10 µM | 0.251 µM | – | – | CCCN(CCC)S(=O)(=O)c1ccc(C(=O)NCCN2CCOCC2)cc1

Row | Compound | Ki (Carbonic anhydrase 2) | Ki (Carbonic anhydrase 9) | Ki (Carbonic anhydrase 1) | Ki (Carbonic anhydrase 12)
13 | CCCN(CCC)S(=O)(=O)c1ccc(C(=O)Nc2cccc([N+](=O)[O-])c2)cc1 | > 10 µM | 0.265 µM | – | –
